Assay results from PMC6141739, “TFPI-2 Protects Against Gram-Negative Bacterial Infection” (Frontiers in Immunology, 2018).

Legend:
P. aeruginosa = experiment: Viable count assay (VCA); assay type: cell-based, Pseudomonas aeruginosa; conditions: 20% human citrate plasma, 2 h 37°C (Figure 3A,B); text does not separate the two bacteria
Escherichia coli [1] = experiment: Viable count assay (VCA); assay type: cell-based, Escherichia coli ATCC 25922
Procedure: Escherichia coli bacteria were grown to mid-logarithmic phase in 10 ml of (3% w/v) Todd-Hewitt (TH), bacteria were washed and diluted in buffer 10 mM Tris, pH 7.4, containing 150 mM NaCl, either alone or with the presence of human 20% citrate plasma, lepirudin, heparin, EDTA plasma, or serum. 1–2 × 10^6 cfu/ml bacteria were incubated in a total volume of 50 μl with the indicated concentrations of C-terminal TFPI-2 derived peptides for 2 h at 37°C. Alternatively, 1–2 × 10^6 cfu/ml of E. coli bacteria in the presence or absence of EDC34 were incubated either in PBS alone or PBS supplemented with 25% of human citrated plasma, immunoglobulins depleted citrated plasma, or immunoglobulins depleted citrated plasma supplemented with 10 μg of IgG/μl, for 2 h at 37°C. Serial of dilutions of the reaction mixture were plated on TH agar plates, followed by the incubation at 37°C overnight. The number of colony forming units was determined as a percentage to control sample.

IgA = experiment: Binding to IgA, SDS-PAGE and immunoblotting; parameters: species or system human; conditions: 0.5 μg EDC34 with 3 μg IgA, 1 h 37°C; immunoblot (Figure 1C)
Procedure: (§1) Three μg of IgG or IgA or IgE or IgM were incubated in 20 μl of buffer (10 mM Tris, 150 mM NaCl, pH 7.4), either alone or with 0.5 μg (6 μM) of EDC34 for 1 h at 37°C. Samples were diluted in SDS buffer and analyzed under non-reducing conditions by SDS-PAGE on Criterion TGX Any kD Gel (BioRad). Alternatively, EDC34 (6 μM) was incubated either alone or in PBS containing 20% serum, citrate, lepirudin, EDTA plasma at different time points (15, 30, 60, and 120 min). Samples were analyzed under non-reducing conditions.

Fc-IgG = experiment: Binding to Fc fragment of IgG, western blot; conditions: 6 μM EDC34 with 6 μM Fc-IgG, 30 min 37°C; western blot (Figure 1E)
Procedure: (§2) Six μM of EDC34 was either incubated alone or with IgGs in 10 mM Tris, 150 mM NaCl, pH 7.4 buffer, under similar concentrations for 15, 30, 60, 120 min or 24 h at 37°C. In another experiment, 6 μM of EDC34 was pre-incubated with 50 μM of TCEP (tris(2-carboxyethyl)phosphine) for 30 min at room temperature before IgG (6 μM) was added. The mixture was further incubated for 24 h at 37°C. In another experiment, 6 μM of IgG or Fab-IgG or Fc-IgG were incubated with or without 6 μM of EDC34 in 10 mM Tris, 150 mM NaCl, pH 7.4 buffer for 30 min at 37°C. Proteins and peptides were transferred to nitrocellulose membranes (Hybond-C), blocked by 5% (w/v) skimmed milk, washed and incubated with rabbit polyclonal antibodies to CAK27 or rabbit polyclonal antibodies to IgG (or 1:1,000) (Dako) or rabbit polyclonal antibodies to C1q (or 1:1,000) (Dako). Polyclonal swine anti-rabbit immunoglobulin secondary HRP antibody (1:1,000) was used for detection and an enhanced chemiluminescent Substrate (LumiGLO) developing system (Upstate cell signaling solutions).

[2] = tested on: human IgG on E. coli bacteria; experiment: Pull down assay, IgG opsonization on the bacterial surface; parameters: species or system Escherichia coli
Procedure: In a total volume of 500 μl PBS buffer, 2 μM of EDC34, and 8 μM of IgG were incubated for 24 h at 37°C. Subsequently, E. coli bacteria (1–2 × 10^6 cfu/ml) were added, and then the mixture was incubated for additional 1 h. In a parallel experiment, the bacteria in the presence of absence of EDC34 were incubated for 30 min at 37°C before IgG was added for 1 h at 37°C. Samples were then centrifuged, bacterial pellets were washed twice with PBS and then re-suspended in 360 μl of 0.1 M glycine, pH 2.0 to elute the bound proteins. The pH of the eluted material was raised to 7.5 with 1 M Tris. Thereafter, 100 μl of 100% TCA were added to precipitate the eluted proteins followed by incubation for 10 min at −20° C followed by a centrifugation step for 20 min at 15,000 × g (4°C). The pellets were washed with acetone and left to air dry before they were dissolved in loading dye and analyzed under non-reducing conditions by SDS-PAGE, followed by Western blot analysis.

IgE = IgE (Homo sapiens, UniProt P01854); experiment: Binding to IgE, SDS-PAGE and immunoblotting; conditions: 0.5 μg EDC34 with 3 μg IgE, 1 h 37°C; immunoblot (Figure 1C)
Sequence of IgE (P01854 1-428 isoform P01854-1): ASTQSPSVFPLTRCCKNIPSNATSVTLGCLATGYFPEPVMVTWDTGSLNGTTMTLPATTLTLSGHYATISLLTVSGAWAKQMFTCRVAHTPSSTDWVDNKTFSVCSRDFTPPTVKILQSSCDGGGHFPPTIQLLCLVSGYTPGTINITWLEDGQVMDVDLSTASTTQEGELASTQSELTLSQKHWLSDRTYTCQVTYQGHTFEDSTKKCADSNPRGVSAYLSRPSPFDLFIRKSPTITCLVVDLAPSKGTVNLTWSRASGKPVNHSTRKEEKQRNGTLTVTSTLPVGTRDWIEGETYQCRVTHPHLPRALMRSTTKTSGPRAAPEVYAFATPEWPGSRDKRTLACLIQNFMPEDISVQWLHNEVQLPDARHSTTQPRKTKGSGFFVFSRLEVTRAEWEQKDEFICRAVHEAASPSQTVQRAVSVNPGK
Procedure: as §1

Fab-IgG = experiment: Binding to Fab fragment of IgG, western blot; conditions: 6 μM EDC34 with 6 μM Fab-IgG, 30 min 37°C; western blot (Figure 1E)
Procedure: as §2

IgM = experiment: Binding to IgM, SDS-PAGE and immunoblotting; parameters: species or system human; conditions: 0.5 μg EDC34 with 3 μg IgM, 1 h 37°C; immunoblot (Figure 1C)
Sequence of IgM (P01871 1-453 isoform P01871-1): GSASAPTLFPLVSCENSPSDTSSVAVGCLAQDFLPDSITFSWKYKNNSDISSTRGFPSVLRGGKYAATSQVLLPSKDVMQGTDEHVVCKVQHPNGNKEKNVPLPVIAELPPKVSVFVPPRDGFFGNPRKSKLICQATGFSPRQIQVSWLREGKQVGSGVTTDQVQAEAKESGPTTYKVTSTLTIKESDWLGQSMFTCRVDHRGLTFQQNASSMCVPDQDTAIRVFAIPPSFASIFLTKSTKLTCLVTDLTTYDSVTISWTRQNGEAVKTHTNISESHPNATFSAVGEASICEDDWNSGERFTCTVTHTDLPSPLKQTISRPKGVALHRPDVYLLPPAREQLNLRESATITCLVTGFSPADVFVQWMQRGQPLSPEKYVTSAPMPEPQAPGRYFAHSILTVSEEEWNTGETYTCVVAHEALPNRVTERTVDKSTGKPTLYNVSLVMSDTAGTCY
Sequence of IgM (P01591 23-159, further chain): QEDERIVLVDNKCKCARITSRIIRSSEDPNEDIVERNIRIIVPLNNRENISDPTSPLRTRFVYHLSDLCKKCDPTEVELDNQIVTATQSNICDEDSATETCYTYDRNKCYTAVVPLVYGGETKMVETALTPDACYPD
Procedure: as §1

human IgG = experiment: Surface plasmon resonance on IgG-coated chip; assay type: binding; conditions: SPR, IgG on CM5 chip, peptide 25–400 nM, 25°C, Hepes running buffer pH 7.5 (Figure 3E)
Procedure: IgG was immobilized (15 μg/mL) on a CM5 sensor chip via amine coupling in a 10 mM sodium acetate buffer (pH 4). A blank immobilization was performed in flow cell one. EDC34 was injected at different concentrations (25–400 nM) at a flow rate of 30 μl/min and a temperature of 25°C over the flow cells using a running buffer containing 10 mm Hepes, 150 mm NaCl, 0.005% surfactant P20, and 3.4 mM EDTA (pH 7.5). Regeneration of the sensor surface was conducted in 0.5 M sodium chloride. The analysis was performed using a Biacore X100 instrument (GE Healthcare, Uppsala, Sweden) and the data was fitted using a 1:1 binding model.

IgG = experiment: Binding to IgG, SDS-PAGE and immunoblotting; parameters: species or system human
Procedure: as §1
as §2, with “Polyclonal swine anti-rabbit immunoglobulin secondary HRP antibody (1:1,000) was used for detection and an enhanced chemiluminescent Substrate (LumiGLO) developing system (Upstate cell signaling solutions).” left out

C1q = conditions: cited from earlier work
Description: (§3) Previous studies have shown that complement activation can be amplified by targeting certain proteins such as complement factor C3 ([33]). Elvington et al. for instance described in 2012 a method showing that complement activation can be used as cancer therapy. To this end the authors employed a fusion protein of a complement receptor and an IgG Fc fragment to improve the outcome of mAb therapy in a murine metastatic cancer model ([33]). […] Moreover EDC34 is able to up re ...

Gram-negative bacteria = conditions: cited from earlier work
Description: as §3

C3a = conditions: cited from earlier work
Description: as §3

Escherichia coli [3] = experiment: Radial diffusion assay (RDA); assay type: cell-based; conditions: 100 μM peptide, high salt (150 mM NaCl), n = 3 (Figure 3C,D)
Procedure: Escherichia coli was grown to mid-logarithmic phase in 10 ml (3% w/v) of trypticase soy broth (TSB). Bacteria were washed and re-suspended in 10 mM Tris, pH 7.4 to obtain a dilution of 1% of bacterial suspension (1–2 × 10^9 colony forming units cfu/ml). Subsequently, 6.6 μl of bacteria were added to 15 ml of melted underlay agarose gel consisting of 0.03% (w/v) TSB, 1% (w/v) low electroendosmosis type (EEO) agarose and 0.02% (v/v) Tween 20 (Sigma) with or without 150 mM NaCl. The mixture was poured to a 144 mm sterile petri dish and left to solidify. After that, 4 mm diameter wells were punctured and 100 μM peptides were added to each well. Plates were incubated for 3 h at 37°C and then covered by adding 15 ml of over-lay gel consisting of 6% TSB and 1% Low-EEO agarose in Millipore water. After 16–24 h of incubation at 37°C, the peptides diffusion around each well formed the zone of inhibition, which corresponded to the peptide's antimicrobial activity.

[4] = tested on: C1q on the surface of E. coli bacteria; experiment: Pull down assay, C1q recruitment to the bacterial surface; parameters: species or system Escherichia coli; conditions: citrate plasma with 10 μM EDC34, 1 h 37°C; anti-C1q immunoblot; versus plasma alone (Figure 2B)

DAAQEPTGNNAET [DAA14, control peptide derived from the N-terminal region of human TFPI-2, reference compound]
antimicrobial activity in plasma, P. aeruginosa (P. aeruginosa): no antimicrobial activity | antimicrobial activity in plasma, E. coli (Escherichia coli [1]; 20% human citrate plasma, 2 h 37°C (Figure 3A,B), text does not separate the two bacteria): no antimicrobial activity

EDCKRACAKALKKKKKMPKLRFASRIRKIRKKQF [EDC34, C-terminal peptide derived from human TFPI-2]
binding to IgA (IgA): avidly binds | binding to Fc fragment of IgG (Fc-IgG): able to bind | opsonization of immunoglobulin on the bacterial surface ([2]; EDC34 (2 μM) pre-incubated with IgG (8 μM) 24 h in PBS, then E. coli 1 h 37°C (Figure 2A)): increased opsonization | opsonization of immunoglobulin on the bacterial surface ([2]; EDC34 first preincubated with E. coli bacteria, then mixed with human IgG (Figure 2A)): less pronounced | binding to IgE (IgE): avidly binds | binding to Fab fragment of IgG (Fab-IgG): only the Fc fragment is able to bind | binding to IgM (IgM): avidly binds | affinity for human IgG (human IgG): highest affinity | binding to IgG (IgG; 0.5 μg EDC34 with 3 μg IgG, 10 mM Tris, 150 mM NaCl, pH 7.4, 1 h 37°C, immunoblot (Figure 1C)): avidly binds | interaction with IgG over time (IgG; EDC34 and IgG 1:1 (6 μM), 37°C, after 24 h incubation (Figure 1D)): entirely absorbed | binding of C1q to bacterial surfaces (C1q): enhances the binding of C1q to bacterial surfaces | eradication of Gram-negative bacteria in vivo (Gram-negative bacteria): significant capacity to eradicate | antimicrobial activity of C3a (C3a): able to up regulate the antimicrobial activity of C3a | antimicrobial activity against E. coli (Escherichia coli [1]; EDC34 6 μM, 10 mM Tris, 150 mM NaCl, pH 7.4 with 20% citrate plasma, 2 h 37°C, n = 3 (Figure 1A)): completely eradicate the bacteria | antimicrobial activity against E. coli (Escherichia coli [1]; EDC34 6 μM, buffer with 20% EDTA plasma, 2 h 37°C, n = 3 (Figure 1A)): decreased | bacterial survival rate (Escherichia coli [1]; EDC34 6 μM, buffer with 20% heparin plasma, 2 h 37°C, n = 3 (Figure 1A)): exceeding 80% | antimicrobial activity against E. coli (Escherichia coli [1]; EDC34 6 μM, buffer with 20% lepirudin plasma, 2 h 37°C, n = 3 (Figure 1A)): decreased | antimicrobial activity against E. coli (Escherichia coli [1]; EDC34 6 μM, buffer with 20% serum, 2 h 37°C, n = 3 (Figure 1A)): decreased | killing of E. coli (Escherichia coli [1]; EDC34 in PBS alone, 2 h 37°C, n = 3 (Figure 2C)): moderate killing activity | killing of E. coli (Escherichia coli [1]; EDC34 in PBS with 25% citrate plasma, 2 h 37°C, n = 3 (Figure 2C)): ~100% | antimicrobial activity (Escherichia coli [1]; EDC34 in PBS with 25% immunoglobulin-depleted citrate plasma reconstituted with IgG, 2 h 37°C, n = 3 (Figure 2C)): retained its full antimicrobial activity | bacterial survival (Escherichia coli [1]; EDC34 in PBS with 25% immunoglobulin-depleted citrate plasma, 2 h 37°C, n = 3 (Figure 2C)): Bacterial survival was increased | antimicrobial activity, zone of inhibition (Escherichia coli [3]): able impair bacterial growth | C1q at the surface of E. coli bacteria [4]: recruitment of C1q
